This passage reports EC50 and IC50 results from ChEMBL document CHEMBL1201862, “PubChem BioAssay data set” (2004).

Experiment [1] deals with Peroxisome proliferator-activated receptor gamma/Nuclear receptor coactivator 1 (Homo sapiens, UniProt P37231). In kind it is functional.
The target in experiment [2] is Peroxisome proliferator-activated receptor gamma/Nuclear receptor coactivator 2 (Homo sapiens, UniProt P37231). In kind it is functional.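 Also: agonist potency for raising coactivator recruitment to the receptor.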
Experiment [3] concerns the target Peroxisome proliferator-activated receptor gamma/Nuclear receptor coactivator 3 (Homo sapiens, UniProt P37231). The format is functional.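 Also: agonist potency for raising coactivator recruitment to the receptor.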
The target in a further experiment is T1, NADPH oxidase 1 (Homo sapiens, UniProt Q9Y5S8).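 Also: Cell-based assay with luminescence read-out, IC50 derived from inhibitor dose-response curves; intracellular ROS from endogenous NOX1 in intact HT29 colon cancer cells; potency of inhibitors that lower the ROS luminescence signal.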
T1 sequence (Q9Y5S8 whole entry): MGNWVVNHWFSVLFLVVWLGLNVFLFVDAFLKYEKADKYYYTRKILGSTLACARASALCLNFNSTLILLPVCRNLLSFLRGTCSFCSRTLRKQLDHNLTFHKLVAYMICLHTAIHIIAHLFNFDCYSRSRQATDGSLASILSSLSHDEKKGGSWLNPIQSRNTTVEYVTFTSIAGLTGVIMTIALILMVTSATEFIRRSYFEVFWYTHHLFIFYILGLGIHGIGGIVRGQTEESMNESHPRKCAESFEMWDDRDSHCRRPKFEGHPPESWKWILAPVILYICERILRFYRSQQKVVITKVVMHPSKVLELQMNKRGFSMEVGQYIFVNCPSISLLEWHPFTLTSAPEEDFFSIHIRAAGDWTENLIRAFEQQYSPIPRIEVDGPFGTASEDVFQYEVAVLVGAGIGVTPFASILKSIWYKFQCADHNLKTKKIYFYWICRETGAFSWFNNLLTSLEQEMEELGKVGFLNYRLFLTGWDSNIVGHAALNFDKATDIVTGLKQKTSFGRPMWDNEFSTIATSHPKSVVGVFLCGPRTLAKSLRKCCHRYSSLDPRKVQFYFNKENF
The format is functional, cell-based.

Experiment [4] deals with Beta-2 adrenergic receptor (Homo sapiens, UniProt P07550). Kind of experiment: beta2AR agonists driving receptor internalization, dose response, cell-based, FAP fluorogen, flow cytometry, cherry pick 1 (AID 588763). The format is functional.
The target in the next experiment is T2, Bcl-2-like protein 10 (Homo sapiens, UniProt Q9HD36).
T2 sequence (Q9HD36 whole entry): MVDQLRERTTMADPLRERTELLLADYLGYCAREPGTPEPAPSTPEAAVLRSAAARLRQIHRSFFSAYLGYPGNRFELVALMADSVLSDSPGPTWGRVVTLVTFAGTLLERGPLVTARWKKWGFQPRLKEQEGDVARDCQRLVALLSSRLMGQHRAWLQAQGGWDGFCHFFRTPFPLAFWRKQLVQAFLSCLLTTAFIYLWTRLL
Kind of experiment: Biochemical TR3 FP assay of Bcl-B inhibitor potency, EC50 (AID 1243). In kind it is functional.

For experiment [5], the target named is T3, Estrogen receptor beta (Homo sapiens, UniProt Q92731).
In experiment [6] the target is T3, Estrogen receptor beta. Kind of experiment: ERβ–SRC-3 coactivator interaction inhibitors, confirmation, orthogonal assay, biochemical, ELISA, streptavidin-HRP readout (AID 1060).
A short description of experiment [7]: Luminescence Cell-Based Dose Confirmation HTS to Identify Inhibitors of Polyadenylation. The format is functional.
In experiment [8] the target is T4, Corticotropin-releasing factor receptor 2/Corticotropin-releasing factor-binding protein (Homo sapiens, UniProt P24387+Q13324).
T4 sequence (Q13324 whole entry): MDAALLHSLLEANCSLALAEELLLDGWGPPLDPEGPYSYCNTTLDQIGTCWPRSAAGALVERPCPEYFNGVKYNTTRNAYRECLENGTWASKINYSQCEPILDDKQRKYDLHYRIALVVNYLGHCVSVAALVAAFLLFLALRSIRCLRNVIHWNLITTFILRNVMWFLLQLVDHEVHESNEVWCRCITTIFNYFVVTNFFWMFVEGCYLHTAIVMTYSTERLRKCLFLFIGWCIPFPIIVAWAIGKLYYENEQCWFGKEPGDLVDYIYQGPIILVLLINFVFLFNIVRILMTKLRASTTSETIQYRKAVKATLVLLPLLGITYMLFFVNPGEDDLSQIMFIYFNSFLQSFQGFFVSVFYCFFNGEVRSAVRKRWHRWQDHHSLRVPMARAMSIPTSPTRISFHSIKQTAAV
T4 sequence (P24387 whole entry): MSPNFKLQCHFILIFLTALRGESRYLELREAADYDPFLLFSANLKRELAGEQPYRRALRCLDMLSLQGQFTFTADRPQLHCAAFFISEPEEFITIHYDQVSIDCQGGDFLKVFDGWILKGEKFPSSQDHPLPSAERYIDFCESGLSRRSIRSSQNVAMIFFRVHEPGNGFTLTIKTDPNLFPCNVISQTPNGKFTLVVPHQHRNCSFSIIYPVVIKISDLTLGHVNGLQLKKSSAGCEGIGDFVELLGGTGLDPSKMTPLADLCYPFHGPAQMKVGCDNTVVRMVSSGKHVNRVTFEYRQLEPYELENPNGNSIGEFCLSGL
Kind of experiment: activators of CRF receptor 2 with binding protein – uHTS hits, confirmation (AID 602473). The format is functional. The note with it: read-out: EC50_Mean.

The target of the next experiment is T5, Aspartyl aminopeptidase (Plasmodium falciparum 3D7, UniProt Q8I2J3).
T5 sequence (Q8I2J3 whole entry): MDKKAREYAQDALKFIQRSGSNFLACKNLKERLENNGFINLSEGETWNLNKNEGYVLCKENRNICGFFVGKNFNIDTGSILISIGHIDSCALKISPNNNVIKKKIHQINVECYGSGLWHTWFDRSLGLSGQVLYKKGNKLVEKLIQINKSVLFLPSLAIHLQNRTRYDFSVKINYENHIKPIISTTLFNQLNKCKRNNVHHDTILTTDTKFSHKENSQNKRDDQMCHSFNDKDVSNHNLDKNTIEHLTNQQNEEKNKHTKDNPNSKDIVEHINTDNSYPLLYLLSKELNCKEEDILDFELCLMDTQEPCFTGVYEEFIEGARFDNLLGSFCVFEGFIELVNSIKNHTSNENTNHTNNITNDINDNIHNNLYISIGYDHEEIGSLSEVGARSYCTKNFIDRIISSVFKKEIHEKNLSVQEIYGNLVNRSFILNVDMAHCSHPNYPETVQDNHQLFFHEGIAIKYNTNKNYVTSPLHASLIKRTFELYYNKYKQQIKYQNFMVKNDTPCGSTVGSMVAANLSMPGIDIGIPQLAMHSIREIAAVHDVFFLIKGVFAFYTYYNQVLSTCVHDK
Kind of experiment: Counterscreen for inhibitors of M1 and M17 aminopeptidases: QFRET-based biochemical high throughput dose response assay for inhibitors of the Plasmodium falciparum M18 Aspartyl Aminopeptidase (PFM18AAP). [Related PubChem assays: 1619 (Screening assay (M17LAP inhibitors).), 1445 (Screening assay (M1AAP inhibitors).)].

The target in a further experiment is T6, Leucine aminopeptidase (Plasmodium falciparum 3D7, UniProt Q8IL11).
T6 sequence (Q8IL11 whole entry): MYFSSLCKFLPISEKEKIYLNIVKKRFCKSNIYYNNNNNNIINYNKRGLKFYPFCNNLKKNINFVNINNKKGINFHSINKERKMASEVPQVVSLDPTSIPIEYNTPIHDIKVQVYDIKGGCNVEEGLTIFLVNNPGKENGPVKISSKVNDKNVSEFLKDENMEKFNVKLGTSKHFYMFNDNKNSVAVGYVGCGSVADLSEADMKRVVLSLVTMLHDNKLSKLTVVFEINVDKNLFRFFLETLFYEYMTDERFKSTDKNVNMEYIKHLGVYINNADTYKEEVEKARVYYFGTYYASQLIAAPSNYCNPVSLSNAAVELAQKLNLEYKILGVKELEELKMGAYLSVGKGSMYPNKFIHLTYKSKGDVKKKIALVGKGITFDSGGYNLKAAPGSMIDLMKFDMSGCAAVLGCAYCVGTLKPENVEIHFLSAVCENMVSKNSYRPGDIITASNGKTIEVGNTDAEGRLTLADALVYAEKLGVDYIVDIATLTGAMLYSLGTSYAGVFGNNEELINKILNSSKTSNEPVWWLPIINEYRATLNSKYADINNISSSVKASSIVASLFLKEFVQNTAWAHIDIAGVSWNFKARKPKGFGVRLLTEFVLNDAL
The experiment in a line: P. falciparum M17LAP inhibitors, primary screen, biochemical, fluorogenic H-Leu-NHMec substrate, 1536-well (AID 1619). The format is functional.

A further experiment deals with Procathepsin L (Homo sapiens, UniProt P07711). Kind of experiment: cathepsin L inhibitors, dose response, counter-screen for M1/M17 aminopeptidase inhibitor project, biochemical, QFRET, 1536-well (AID 2214).
The next experiment concerns the target Mucolipin-3 (Homo sapiens, UniProt Q8TDD5). Kind of experiment: Dose response cell-based high-throughput screening assay for agonists of the transient receptor potential channel ML3 (TRPML3). [Related pubchem assays: 1526, 1424, 1448 ]. The format is functional.
A further experiment deals with Ion channel NompC (Danio rerio, UniProt Q7T1G6). Kind of experiment: Fluorescence counterscreen assay for TRPML3 agonists: dose response cell-based high-throughput screening assay to identify agonists of the transient receptor potential channel N1 (TRPN1). [Related pubchem assays: 1526, 1424, 1448 ]. The format is functional.
The target of another experiment is T7, Estrogen receptor (Homo sapiens, UniProt P03372).
T7 sequence (P03372 whole entry): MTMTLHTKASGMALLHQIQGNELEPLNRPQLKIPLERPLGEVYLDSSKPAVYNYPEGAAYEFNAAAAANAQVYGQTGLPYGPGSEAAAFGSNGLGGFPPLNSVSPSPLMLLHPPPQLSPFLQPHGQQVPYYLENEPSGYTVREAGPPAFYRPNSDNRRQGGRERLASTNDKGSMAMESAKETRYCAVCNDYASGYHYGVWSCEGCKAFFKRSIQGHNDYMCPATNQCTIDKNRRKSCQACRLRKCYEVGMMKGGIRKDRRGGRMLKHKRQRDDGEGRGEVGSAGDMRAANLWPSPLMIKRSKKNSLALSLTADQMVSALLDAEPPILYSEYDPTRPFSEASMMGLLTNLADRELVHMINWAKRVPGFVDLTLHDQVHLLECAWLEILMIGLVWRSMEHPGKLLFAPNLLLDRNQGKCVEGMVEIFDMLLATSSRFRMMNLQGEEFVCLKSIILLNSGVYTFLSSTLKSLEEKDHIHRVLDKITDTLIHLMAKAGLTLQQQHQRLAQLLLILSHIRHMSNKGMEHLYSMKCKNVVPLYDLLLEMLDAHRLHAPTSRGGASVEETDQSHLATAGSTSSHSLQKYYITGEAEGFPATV

A further experiment deals with Melanocortin receptor 4 (Homo sapiens, UniProt P32245). The format is functional, cell-based.

Each structure is given as a SMILES string. Activity calls are given as the source filed them.

T3 sequence (Q92731 whole entry): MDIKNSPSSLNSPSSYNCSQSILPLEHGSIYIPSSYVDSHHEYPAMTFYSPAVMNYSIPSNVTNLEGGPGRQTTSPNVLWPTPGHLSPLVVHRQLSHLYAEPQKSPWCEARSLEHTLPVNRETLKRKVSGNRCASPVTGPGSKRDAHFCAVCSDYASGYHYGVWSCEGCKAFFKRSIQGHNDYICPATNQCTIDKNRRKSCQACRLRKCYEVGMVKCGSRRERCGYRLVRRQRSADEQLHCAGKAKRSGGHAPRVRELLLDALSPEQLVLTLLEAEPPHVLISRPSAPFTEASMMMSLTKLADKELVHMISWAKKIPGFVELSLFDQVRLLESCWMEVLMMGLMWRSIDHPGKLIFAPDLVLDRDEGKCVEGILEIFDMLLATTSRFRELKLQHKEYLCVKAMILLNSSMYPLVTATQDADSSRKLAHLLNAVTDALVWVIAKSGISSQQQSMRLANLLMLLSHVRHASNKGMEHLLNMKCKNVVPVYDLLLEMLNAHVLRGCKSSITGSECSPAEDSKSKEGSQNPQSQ
Peroxisome proliferator-activated receptor gamma/Nuclear receptor coactivator 3, sequence (P37231 whole entry): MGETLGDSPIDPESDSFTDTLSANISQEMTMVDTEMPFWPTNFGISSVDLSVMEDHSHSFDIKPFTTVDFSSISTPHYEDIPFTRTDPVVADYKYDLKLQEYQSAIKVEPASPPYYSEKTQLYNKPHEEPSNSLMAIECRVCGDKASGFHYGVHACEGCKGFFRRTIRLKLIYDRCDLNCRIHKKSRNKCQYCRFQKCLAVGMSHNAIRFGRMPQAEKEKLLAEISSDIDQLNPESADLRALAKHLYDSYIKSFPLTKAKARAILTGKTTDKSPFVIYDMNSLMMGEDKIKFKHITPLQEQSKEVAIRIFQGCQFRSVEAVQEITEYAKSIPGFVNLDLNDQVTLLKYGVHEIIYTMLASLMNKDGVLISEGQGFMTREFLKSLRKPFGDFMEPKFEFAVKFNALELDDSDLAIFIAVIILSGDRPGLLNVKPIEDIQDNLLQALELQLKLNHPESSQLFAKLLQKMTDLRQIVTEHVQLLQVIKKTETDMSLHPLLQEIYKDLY
Peroxisome proliferator-activated receptor gamma/Nuclear receptor coactivator 3, sequence (Q9Y6Q9 whole entry, further chain): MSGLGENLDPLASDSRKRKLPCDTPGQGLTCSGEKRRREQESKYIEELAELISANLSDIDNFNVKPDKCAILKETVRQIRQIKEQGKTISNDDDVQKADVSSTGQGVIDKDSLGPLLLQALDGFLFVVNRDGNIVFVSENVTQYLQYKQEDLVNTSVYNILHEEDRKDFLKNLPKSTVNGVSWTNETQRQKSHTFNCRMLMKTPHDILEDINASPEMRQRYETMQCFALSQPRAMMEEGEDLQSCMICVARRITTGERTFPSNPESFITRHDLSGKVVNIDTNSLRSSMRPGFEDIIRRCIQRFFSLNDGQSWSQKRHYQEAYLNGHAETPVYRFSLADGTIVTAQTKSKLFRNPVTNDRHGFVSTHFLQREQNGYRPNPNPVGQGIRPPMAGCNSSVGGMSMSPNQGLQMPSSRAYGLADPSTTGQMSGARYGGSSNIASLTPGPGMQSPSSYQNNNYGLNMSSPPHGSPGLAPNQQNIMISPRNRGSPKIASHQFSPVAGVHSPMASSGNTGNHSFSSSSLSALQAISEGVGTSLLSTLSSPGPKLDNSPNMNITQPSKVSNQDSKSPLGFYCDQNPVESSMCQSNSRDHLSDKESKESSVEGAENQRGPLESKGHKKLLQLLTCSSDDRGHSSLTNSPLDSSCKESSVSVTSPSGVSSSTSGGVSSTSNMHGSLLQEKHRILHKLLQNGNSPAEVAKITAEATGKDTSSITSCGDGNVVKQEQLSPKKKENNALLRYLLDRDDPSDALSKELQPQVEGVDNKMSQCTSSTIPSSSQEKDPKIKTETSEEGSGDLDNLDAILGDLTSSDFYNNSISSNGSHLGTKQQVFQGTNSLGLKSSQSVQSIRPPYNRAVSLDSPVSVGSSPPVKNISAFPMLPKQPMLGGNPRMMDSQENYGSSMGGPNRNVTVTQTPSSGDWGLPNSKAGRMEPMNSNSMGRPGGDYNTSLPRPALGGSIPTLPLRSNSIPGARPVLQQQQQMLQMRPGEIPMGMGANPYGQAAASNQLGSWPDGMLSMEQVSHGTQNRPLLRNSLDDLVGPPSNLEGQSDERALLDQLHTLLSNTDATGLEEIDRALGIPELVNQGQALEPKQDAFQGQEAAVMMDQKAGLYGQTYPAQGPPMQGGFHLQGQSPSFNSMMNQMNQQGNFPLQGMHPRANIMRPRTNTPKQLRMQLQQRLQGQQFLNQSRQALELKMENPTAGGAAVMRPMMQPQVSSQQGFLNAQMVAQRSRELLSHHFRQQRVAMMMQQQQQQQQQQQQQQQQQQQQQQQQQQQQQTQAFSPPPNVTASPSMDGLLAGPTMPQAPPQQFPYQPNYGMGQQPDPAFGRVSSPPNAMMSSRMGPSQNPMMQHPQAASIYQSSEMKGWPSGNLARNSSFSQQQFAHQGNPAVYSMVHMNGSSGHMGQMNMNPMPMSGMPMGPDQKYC
Peroxisome proliferator-activated receptor gamma/Nuclear receptor coactivator 1, sequence (P37231 whole entry): as the sequence (P37231 whole entry) above
Peroxisome proliferator-activated receptor gamma/Nuclear receptor coactivator 1, sequence (Q15788 whole entry, further chain): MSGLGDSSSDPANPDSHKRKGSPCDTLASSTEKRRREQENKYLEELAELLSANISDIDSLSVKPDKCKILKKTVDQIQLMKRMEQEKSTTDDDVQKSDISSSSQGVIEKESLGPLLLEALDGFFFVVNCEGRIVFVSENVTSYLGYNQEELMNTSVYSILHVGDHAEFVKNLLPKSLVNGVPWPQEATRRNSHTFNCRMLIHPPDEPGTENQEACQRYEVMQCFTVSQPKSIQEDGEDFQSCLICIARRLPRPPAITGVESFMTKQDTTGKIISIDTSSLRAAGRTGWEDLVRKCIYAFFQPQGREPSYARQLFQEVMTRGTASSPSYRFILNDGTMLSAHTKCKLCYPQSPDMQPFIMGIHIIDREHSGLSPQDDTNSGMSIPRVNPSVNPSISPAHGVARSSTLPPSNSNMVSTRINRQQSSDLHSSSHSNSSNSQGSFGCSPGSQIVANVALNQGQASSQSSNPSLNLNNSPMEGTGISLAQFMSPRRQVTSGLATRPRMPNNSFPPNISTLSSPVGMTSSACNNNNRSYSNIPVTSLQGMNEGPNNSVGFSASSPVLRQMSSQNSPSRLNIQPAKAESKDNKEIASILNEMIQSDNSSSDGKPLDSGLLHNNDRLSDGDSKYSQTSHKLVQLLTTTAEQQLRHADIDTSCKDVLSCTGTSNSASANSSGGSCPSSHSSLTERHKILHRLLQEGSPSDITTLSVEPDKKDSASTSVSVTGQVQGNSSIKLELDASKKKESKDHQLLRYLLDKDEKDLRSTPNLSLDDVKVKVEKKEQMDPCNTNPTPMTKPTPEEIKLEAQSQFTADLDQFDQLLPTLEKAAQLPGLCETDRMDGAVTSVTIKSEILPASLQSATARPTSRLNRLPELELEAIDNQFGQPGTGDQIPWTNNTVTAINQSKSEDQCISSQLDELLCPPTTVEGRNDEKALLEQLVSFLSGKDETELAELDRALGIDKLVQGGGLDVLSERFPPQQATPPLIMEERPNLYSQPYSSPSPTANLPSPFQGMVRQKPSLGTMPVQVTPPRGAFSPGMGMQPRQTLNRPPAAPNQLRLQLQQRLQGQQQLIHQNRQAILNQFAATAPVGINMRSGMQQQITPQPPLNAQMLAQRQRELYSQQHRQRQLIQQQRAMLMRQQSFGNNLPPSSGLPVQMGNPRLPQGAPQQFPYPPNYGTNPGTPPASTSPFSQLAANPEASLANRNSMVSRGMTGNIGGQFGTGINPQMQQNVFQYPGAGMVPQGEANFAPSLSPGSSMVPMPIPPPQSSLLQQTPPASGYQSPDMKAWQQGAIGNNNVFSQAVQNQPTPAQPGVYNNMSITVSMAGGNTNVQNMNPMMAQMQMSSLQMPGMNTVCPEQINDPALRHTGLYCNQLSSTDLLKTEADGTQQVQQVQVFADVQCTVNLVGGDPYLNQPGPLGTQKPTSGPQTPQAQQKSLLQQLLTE
Mucolipin-3, sequence (Q8TDD5 whole entry): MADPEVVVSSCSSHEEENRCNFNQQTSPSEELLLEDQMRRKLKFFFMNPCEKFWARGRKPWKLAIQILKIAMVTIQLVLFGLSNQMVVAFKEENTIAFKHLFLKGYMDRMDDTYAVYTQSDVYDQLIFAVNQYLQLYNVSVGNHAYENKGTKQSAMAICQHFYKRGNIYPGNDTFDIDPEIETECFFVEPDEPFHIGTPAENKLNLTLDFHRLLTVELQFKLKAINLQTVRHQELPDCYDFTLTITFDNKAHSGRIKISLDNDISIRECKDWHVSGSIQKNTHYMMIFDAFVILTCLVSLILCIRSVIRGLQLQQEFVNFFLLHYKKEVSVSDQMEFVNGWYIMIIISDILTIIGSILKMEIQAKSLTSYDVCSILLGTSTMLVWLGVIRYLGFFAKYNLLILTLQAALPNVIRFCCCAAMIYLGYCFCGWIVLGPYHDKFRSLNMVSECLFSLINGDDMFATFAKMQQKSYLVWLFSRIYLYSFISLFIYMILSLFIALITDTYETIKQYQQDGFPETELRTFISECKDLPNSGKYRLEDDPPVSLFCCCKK

As to `COc1cc(C(=S)N2CCOCC2)cc(OC)c1OC(=O)c1cc([N+](=O)[O-])c(C)c([N+](=O)[O-])c1`, the EC50 in [1], in [2] and in [3] was > 79.4 µM (not active) throughout.
On to `O=C(Cc1ccccc1)NNC(=O)Cc1ccccc1`, for which, on NADPH oxidase 1, the IC50 was > 17 µM (not active).
`CCCCCCN1C(=O)NC(=O)/C(=C\Nc2c(C)n(C)n(-c3ccccc3)c2=O)C1=O`: the EC50 in experiment [1] is > 79.4 µM (not active); in experiment [2], > 79.4 µM (not active); in experiment [4] it was 1.31 µM (active); in experiment [3], > 79.4 µM (not active).
For `Cc1cc(C)nc(/N=C(\N)Nc2cccc(N)c2)n1`, the EC50 at Bcl-2-like protein 10 was 5.45 µM (active).
Take `c1ccc(-c2nnc3sc(Cc4cccs4)nn23)cc1`: the IC50 is 21.6 µM (active) on Estrogen receptor beta [5] and > 109 µM (not active) against Estrogen receptor beta [6].
Turning to `O=C1C=CC2=C3Oc4c(ccc5cc(O)ccc45)C(c4ccccc4C(=O)O)C3C=CC2=C1` (configuration not stated), the EC50 at Bcl-2-like protein 10 was 1.68 µM (active).
`C/C(=C\C=C(C#N)C#N)c1cc(C#N)c(N)o1`: the EC50 in experiment [7] is 11.1 µM (active); in experiment [8], 5.13 µM (active).
As for `CCc1cc2ccc(C)cc2nc1SCC(=O)Nc1cc(OC)c(OC)cc1C(=O)O`, the IC50 on Aspartyl aminopeptidase is > 73.5 µM (not active); on Leucine aminopeptidase, < 1 µM (active); on Procathepsin L, > 59.6 µM (not active).
`Cc1ccc(S(=O)(=O)N2C(=S)SCC2(C)C)cc1`: the EC50 on Mucolipin-3 is 7.22 µM (active); at Ion channel NompC it was > 29.9 µM (not active).
On the same counts, the results for `CCOc1ccccc1N1CCN(S(=O)(=O)c2ccc(Cl)s2)CC1` are 8.16 µM (active) and > 29.9 µM (not active).
Take `CCN1C(=O)/C(=C2/Sc3ccc(OC)cc3N2C)S/C1=N\c1cccc(O)c1`: the half-maximal inhibitory concentration (IC50) was > 50 µM (not active) against Estrogen receptor beta [5], 0.0604 µM (not active) against Estrogen receptor beta [6] and > 50 µM (not active) against Estrogen receptor. For the same molecule, the EC50 on Melanocortin receptor 4 is > 89.2 µM (inactive).
Regarding `CCCCCCCCCCCC(=O)N/N=C/c1ccco1`, in experiment [7], the EC50 is listed as > 120 µM (not active).
On to `CN(C)CCCN1c2ccccc2Sc2ccc(Cl)cc21` [CHLORPROMAZINE], for which the IC50 against NADPH oxidase 1 is > 17 µM (not active).
